# Data from patent publication US20180177734A1, “PHARMACEUTICAL FORMULATIONS COMPRISING TENOFOVIR AND EMTRICITABINE” (priority 2015, published 2018).
# Like-named read-outs stand apart in the source and are kept apart here.
# Settings: 40° C./75% RH open, 60° C. closed
smiles,measurement,setting,value
CC(C)OC(=O)[C@H](C)N[P@](=O)(CO[C@H](C)Cn1cnc2c(N)ncnc21)Oc1ccccc1 [tenofovir alafenamide hemifumarate],rate of degradation of tenofovir alafenamide hemifumarate,in the presence of both emtricitabine and rilpivirine HCl,further increased
same,rate of degradation of tenofovir alafenamide hemifumarate,in the presence of emtricitabine,increased
